Results as given in patent US20230365563A1, “QUINAZOLINE COMPOUND AND APPLICATION THEREOF” (SHANGHAI PHARMACEUTICALS HOLDING CO., LTD., priority 2020, published 2023).
Counter-ions that a name gives are not always drawn.

What was measured:
[1] = target: T1, KRAS_G12D and cRAF (Homo sapiens, UniProt P01116, G12D); test: Inhibition of KRAS_G12D/cRAF binding (Cisbio binding kit, 665/615 ratio), Effect Embodiment B; conditions: read-out: GTP-KRAS-G12D:CRAF IC50
T1 construct: purchased
Summary of the method: (§1)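 Compounds underwent 3-fold dilution from their storage solutions (11 points), were transferred to assay wells in duplicate with DMSO held at 1% final, and were briefly centrifuged.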

[2] = target: T2, KRAS-G12D and SOS1 (Homo sapiens, UniProt P01116, G12D); test: Inhibition of KRAS-G12D/SOS1 binding (Cisbio binding kit, 665/615 ratio), Effect Embodiment A; conditions: read-out: GTP-KRAS-G12D:SOS1 IC50
T2 construct: purchased
Summary of the method: as §1

[3] = target: T3, KRAS_WT and SOS1 (Homo sapiens, UniProt P01116); test: Inhibition of KRAS_WT/SOS1 binding (Cisbio binding kit, 665/615 ratio), Effect Embodiment C; conditions: read-out: GTP-KRAS-WT:SOS1 IC50
T3 construct: purchased
Summary of the method: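 Compounds tested as 3-fold, 11-point dilutions in duplicate at 1% DMSO final against the KRAS_WT/SOS1 binding system. IC50 derived by nonlinear regression fit.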

T3 sequence (P01116 1-188 isoform P01116-2): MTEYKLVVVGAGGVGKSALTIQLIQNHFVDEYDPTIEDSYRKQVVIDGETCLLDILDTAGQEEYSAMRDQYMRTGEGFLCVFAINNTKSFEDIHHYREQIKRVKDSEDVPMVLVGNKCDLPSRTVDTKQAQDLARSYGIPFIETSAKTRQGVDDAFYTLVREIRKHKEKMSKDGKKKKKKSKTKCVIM
T1 sequence (P01116 1-188 isoform P01116-2 G12D): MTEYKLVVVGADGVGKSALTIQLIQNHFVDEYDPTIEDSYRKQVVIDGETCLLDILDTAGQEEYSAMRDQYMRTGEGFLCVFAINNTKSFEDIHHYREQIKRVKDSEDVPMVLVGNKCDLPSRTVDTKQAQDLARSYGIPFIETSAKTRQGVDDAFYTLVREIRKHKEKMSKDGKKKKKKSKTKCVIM
T2 sequence (P01116 1-188 isoform P01116-2 G12D): as above

For Oc1cc(-c2c(Cl)cc3c(N4CC5CCC(C4)N5)nc(OCCCN4CC5CCC4CO5)nc3c2F)c2ccccc2c1 (single isomer, unassigned) [Compound 187a, (R or S)-4-(2-(3-((1S,4S or 1R,4R)-2-oxa-5-azabicyclo[2.2.2]octan-5-yl)propoxy)-4-((1R,5S)-3,8-diazabicyclo[3.2.1]octan-3-yl)-6-chloro-8-fluoroquinazolin-7-yl)naphthalen-2-ol diformate], the IC50 [1] was 66.2 nM, the IC50 [2] was 27.4 nM and the IC50 [3] was 1350 nM.
Work on Oc1cc(-c2c(Cl)cc3c(N4CC5CCC(C4)N5)nc(OCCCN4CC5CCC4CO5)nc3c2F)c2ccccc2c1 (single isomer, unassigned) [Compound 187b, (R or S)-4-(2-(3-((1R,4R or 1S,4S)-2-oxa-5-azabicyclo[2.2.2]octan-5-yl)propoxy)-4-((1R,5S)-3,8-diazabicyclo[3.2.1]octan-3-yl)-6-chloro-8-fluoroquinazolin-7-yl)naphthalen-2-ol diformate] yielded an IC50 [1] of 115 nM, an IC50 [2] of 27.7 nM and an IC50 [3] of 1670 nM.
Molecule Oc1cc(-c2c(Cl)cc3c(N4CC5CCC(C4)N5)nc(OCCCN4CC5CCC(C4)O5)nc3c2F)c2ccccc2c1 (single isomer, unassigned) [Compound 188, 4-((7R or S)-2-(3-(8-oxa-3-azabicyclo[3.2.1]octan-3-yl)propoxy)-4-((1R,5S)-3,8-diazabicyclo[3.2.1]octan-3-yl)-6-chloro-8-fluoroquinazolin-7-yl)naphthalen-2-ol formate] has an IC50 [1] of 133 nM, an IC50 [2] of 35.6 nM and an IC50 [3] of 1020 nM.
C[C@H]1C[C@@H](COc2nc(N3CC4CCC(C3)N4)c3cc(Cl)c(-c4cc(O)cc5ccccc45)c(F)c3n2)N(C)C1 (single isomer, unassigned) [Compound 190, 4-((R or S)-4-((1R,5S)-3,8-diazabicyclo[3.2.1]octan-3-yl)-6-chloro-2-((2S,4S)-1,4-dimethylpyrrolidin-2-yl)methoxy)-8-fluoroquinazolin-7-yl)naphthalen-2-ol diformate] was tested, and the IC50 [1] was 28.9 nM, the IC50 [2] was 15.3 nM and the IC50 [3] was 292 nM.
With CN1CCC[C@H]1COc1nc(N2CC3(C)CCC(C)(C2)N3)c2cc(Cl)c(-c3cc(O)cc4ccccc34)c(F)c2n1 (single isomer, unassigned) [Compound 194a, 4-((R or S)-6-chloro-4-((1R,5S)-1,5-dimethyl-3,8-diazabicyclo[3.2.1]octan-3-yl)-8-fluoro-2-(((S)-1-methylpyrrolidin-2-yl)methoxy)quinazolin-7-yl)naphthalen-2-ol diformate] the IC50 [1] was 155 nM, the IC50 [2] was 27.9 nM and the IC50 [3] was 205 nM.
With CN1CCC[C@H]1COc1nc(N2CC3CCC(C2)N3)c2cc(Cl)c(-c3c(F)c(O)cc4ccccc34)c(F)c2n1 (single isomer, unassigned) [Compound 195b, (S or R)-4-(4-((1R,5S)-3,8-diazabicyclo[3.2.1]octan-3-yl)-6-chloro-8-fluoro-2-((S)-1-methylpyrrolidin-2-yl)methoxy)quinazolin-7-yl)-3-fluoronaphthalen-2-ol formate] the IC50 [1] was 334 nM, the IC50 [2] was 57.7 nM and the IC50 [3] was 6490 nM.
For Oc1cc(Cl)c(C2CC2)c(-c2c(Cl)cc3c(N4C[C@H]5CC[C@@H](C4)N5)nc(OCCCN4C5CCC4COC5)nc3c2F)c1 (single isomer, unassigned) [Compound 197a, 3-((7R or 7S)-2-(3-(3-oxa-8-azabicyclo[3.2.1]octan-8-yl)propoxy)-4-((1R,5S)-3,8-diazabicyclo[3.2.1]octan-3-yl)-6-chloro-8-fluoroquinazolin-7-yl)-5-chloro-4-cyclopropylphenol formate], the IC50 [1] was 59.8 nM, the IC50 [2] was 17.8 nM and the IC50 [3] was 833 nM.
In the case of Oc1cc(Cl)c(C2CC2)c(-c2c(Cl)cc3c(N4CC5CCC(C4)N5)nc(OC[C@@]45CCCN4C[C@H](F)C5)nc3c2F)c1 (single isomer, unassigned) [Compound 198a, 3-((R or S)-4-((1R,5S)-3,8-diazabicyclo[3.2.1]octan-3-yl)-6-chloro-8-fluoro-2-((2R,7aS)-2-fluorotetrahydro-1H-pyrrolin-7a(5H)-yl)methoxy)quinazolin-7-yl)-5-chloro-4-cyclopropylphenol formate], the IC50 [1] is reported as 6.11 nM, the IC50 [2] is reported as 11.4 nM and the IC50 [3] is reported as 23.5 nM.
Oc1cc(Cl)c(C2CC2)c(-c2c(Cl)cc3c(N4CC5CCC(C4)N5)nc(OC[C@@]45CCCN4C[C@H](F)C5)nc3c2F)c1 (single isomer, unassigned) [Compound 198b, 3-((S or R)-4-((1R,5S)-3,8-diazabicyclo[3.2.1]octan-3-yl)-6-choro-8-fluoro-2-((2R,7aS)-2-fluorotetrahydro-1H-pyrrolin-7a(5H)-yl)methoxy)quinazolin-7-yl)-5-chloro-4-cyclopropylphenol formate] was tested, and the IC50 [1] was 38.5 nM, the IC50 [2] was 54.1 nM and the IC50 [3] was 105 nM.
Oc1cc(-c2c(Cl)cc3c(N4CC5CCC(C4)N5)nc(OCC45CCCN4CCC5)nc3c2F)c2ccccc2c1 (single isomer, unassigned) [Compound 199, 4-((R or S)-4-((1R,5S)-3,8-diazabicyclo[3.2.1]octan-3-yl)-6-chloro-8-fluoro-2-((tetrahydro-1H-pyrrolin-7a(5H)-yl)methoxy)quinazolin-7-yl)naphthalen-2-ol diformate] gave an IC50 [1] of 9 nM, an IC50 [2] of 13.2 nM and an IC50 [3] of 58.4 nM.
Oc1cc(-c2c(Cl)cc3c(N4CC5CCC(C4)N5)nc(OCCCN4C5COCC4C5)nc3c2F)c2ccccc2c1 (single isomer, unassigned) [Compound 200, 4-((7S or 7R)-2-(3-(3-oxa-6-azabicyclo[3.1.1]heptan-6-yl)propoxy)-4-((1R,5S)-3,8-diazabicyclo[3.2.1]octan-3-yl)-6-chloro-8-fluoroquinazolin-7-yl)naphthalen-2-ol diformate] was tested, and the IC50 [1] was 73.7 nM, the IC50 [2] was 62 nM and the IC50 [3] was 2490 nM.
Work on CCC(COc1nc(N2CC3CCC(C2)N3)c2cc(Cl)c(-c3cc(O)cc4ccccc34)c(F)c2n1)CN1C2CCC1COC2 (single isomer, unassigned) [Compound 201a, (4S or 4R)-4-(2-((2R or 2S)-2-(3-oxa-8-azabicyclo[3.2.1]octan-8-ylmethyl)butoxy)-4-((1R,5S)-3,8-diazabicyclo[3.2.1]octan-3-yl)-6-chloro-8-fluoroquinazolin-7-yl)naphthalen-2-ol formate] yielded an IC50 [1] of 23.2 nM, an IC50 [2] of 29 nM and an IC50 [3] of 1040 nM.
With CCC(COc1nc(N2CC3CCC(C2)N3)c2cc(Cl)c(-c3cc(O)cc4ccccc34)c(F)c2n1)CN1C2CCC1COC2 (single isomer, unassigned) [Compound 201b, (4S or 4R)-4-(2-((2S or 2R)-2-(3-oxa-8-azabicyclo[3.2.1]octan-8-ylmethyl)butoxy)-4-((1R,5S)-3,8-diazabicyclo[3.2.1]octan-3-yl)-6-chloro-8-fluoroquinazolin-7-yl)naphthalen-2-ol formate] the IC50 [1] was 45.8 nM, the IC50 [2] was 54.6 nM and the IC50 [3] was 2180 nM.
C[C@H](COc1nc(N2CC3CCC(C2)N3)c2cc(Cl)c(-c3cc(O)cc4ccccc34)c(F)c2n1)CN(C)C (single isomer, unassigned) [Compound 202, 4-((S or R)-4-((1R,5S)-3,8-diazabicyclo[3.2.1]octan-3-yl)-6-chloro-2-((S)-3-(dimethylamino)-2-methylpropoxy)-8-fluoroquinazolin-7-yl)naphthalen-2-ol diformate] showed an IC50 [1] of 168 nM, an IC50 [2] of 51.8 nM and an IC50 [3] of 2150 nM.
